Columns and labels:
[1] = n-octanol-aqueous medium partition coefficient pH correlation; format: physicochemical; conditions: pH 7.4; morpholinoethyl vs piperidinoethyl selenide
Text: The n-octanol-aqueous medium partition coefficients of the compound are readily measured in accordance with standard practice in the prior art. Briefly, such measurements include the steps of dissolving a known amount of the compound in an aqueous buffer of a predetermined pH and extracting the buffer solution with a known amount of n-octanol until an equilibrium of distribution of the compound between the aqueous and n-octanol phases occurs. The concentration of the compound in both phases is then measured by suitable analytical means, such as ultraviolet spectrophotometry; the partition coefficient being the ratio of the two measured concentrations.
For the purposes of evaluating a plurality of radioactive compounds for use in the novel method of the present invention, the n-octanol-aqueous medium partition coefficients of the compounds were measured in the following manner. The radioactive compound was mixed with 1.0 ml of n-octanol and 1.0 ml of buffer of the desired predetermined pH. The radioactivity of this mixture was counted, and the mixture was placed in a water bath shaker at 37° C. for 2 hours. After centrifugation at 3,000 rpm for 5 minutes, the n-octanol layer was separated and its radioactivity counted. The partition coefficient of the compound was calculated by the following equation: [formula]

[2] = Organ distribution of Se-75 labeled compound in rats after intravenous injection; format: in vivo, Spraque-Dawley male rats; conditions: rat; for % dose/organ, blood: blood assumed 7% of body weight; for % dose/organ, muscle: muscle assumed 40% of body weight
Text: FIGS. 2 and 3 respectively show the relative concentration of Se-75 labeled di-β-(piperidinoethyl)-selenide and di-β-(morpholinoethyl)-selenide in rat brains at several time intervals after an intravenous injection of a dose of the respective compounds into the rat. As is shown in FIG. 3, and also in Table 4, two minutes after an intravenous injection of Se-75 labeled di-β-(morpholinoethyl)-selenide, the brain uptake of the radiopharmaceutical compound reaches a value of 3.19%. […] The terms uptake, % uptake or % dose are used to describe the percentage of the radiopharmaceutical compound contained in a given organ or tissue as compared to the total initial dose. The numerical values in FIGS. 2 and 3 and Tables 3 and 4 represent such percentages.
Studies of distribution of the radiopharmaceutical compounds of the present invention in rats, the results of which are reflected in FIGS. 2 and 3 and Tables 3 and 4, were conducted according to standard practice in the pharmacological sciences, and therefore need not be described here in great detail. Nevertheless, for the sake of complete understanding of the present invention, some experimental details of these studies are briefly described below:
Spraque-Dawley male rats (220-300 g) were injected intravenously (femoral vein) with a 0.2 ml solution (0.5-2 micro Ci) under light ether anaesthesia. At different time periods after the injection, the animals were sacrificed and organs of interest were excised and counted in a well counter. Percent dose was estimated by comparison of tissue counts to suitably diluted aliquots of the injected material. Total activities in blood and muscle were calculated by assuming that they are 7% and 40% of the body weight respectively.

[3] = Brain imaging study on rhesus monkey (Cleon 710 ECAT scanner); format: in vivo, rhesus monkeys; conditions: 5.3 kg monkey, 1 mCi injected, images 15 minutes to 2 hours
Experimental: In addition to the above described organ and tissue distribution studies in rats of the several compounds of the present invention, brain imaging studies were also conducted on rhesus monkeys using a Cleon 710 ECAT scanner.
A 5.3 kg monkey, lightly sedated with Ketalar, was injected with 1 mCi of di-β-(morpholinoethyl)-selenide, (specific activity 1 mCi/mg). Five minutes later the monkey was anaesthetized with pentabarbital. A series of tomographic images was taken at roughly 1/2" intervals starting at the vertex. The first image was started 15 minutes after injection and various images were recorded up to 2 hours after injection. Each image contained approximately one million counts. At the conclusion of the imaging experiment, the monkey was killed and the brain was assayed in the dose calibrator used for measuring the injected dose. No correction was applied for the change in geometry between the syringe and the monkey brain. The weight of the brain was 84 g.

[4] = i.v., 15 min (average of 6 rats)

Structure (SMILES): C1CN(CC[75Se]CCN2CCOCC2)CCO1 [di-β-(morpholinoethyl)-selenide]
- partition coefficient / lipid solubility at the pH of the blood (in words) [1]: higher partition coefficient at the pH of the blood (7.4) than di-β-(piperidinoethyl)-selenide
- decrease of brain content (% dose) (in words) ([2]; after intravenous injection): decreases much more rapidly after the intravenous injection than that of di-β-(piperidinoethyl)-selenide
- penetration of the blood brain barrier (in words) ([2]; i.v.): capable of penetrating the blood brain barrier
- % dose/organ, heart ([2]; i.v., 2 min): 0.45%
- % dose/organ, kidney ([2]; i.v., 2 min): 9.89%
- % dose/organ, liver ([2]; i.v., 2 min): 18.3%
- % dose/organ, lung(2) ([2]; i.v., 2 min): 2.77%
- % dose/organ, pancreas ([2]; i.v., 2 min): 0.88%
- % dose/organ, spleen ([2]; i.v., 2 min): 0.68%
- % dose/organ, brain (brain uptake) ([2]; i.v., 2 min (morpholinoethyl: average of 5 samples)): 3.19%
- % dose/organ, blood ([2]; i.v., 2 min): 3.13%
- % dose/organ, muscle ([2]; i.v., 2 min): 10.5%
- % dose/organ, brain (brain uptake) ([2]; i.v., 5 min): 2.80%
- % dose/organ, kidney ([2]; i.v., 5 min): 7.46%
- % dose/organ, liver ([2]; i.v., 5 min): 19.7%
- % dose/organ, spleen ([2]; i.v., 5 min): 0.87%
- % dose/organ, blood ([2]; i.v., 5 min): 2.72%
- % dose/organ, muscle ([2]; i.v., 5 min): 15.0%
- % dose/organ, brain (brain uptake) [2, 4]: 2.23%
- % dose/organ, kidney [2, 4]: 4.04%
- % dose/organ, liver [2, 4]: 22.1%
- % dose/organ, spleen [2, 4]: 1.23%
- % dose/organ, blood [2, 4]: 2.26%
- % dose/organ, muscle [2, 4]: 19.4%
- % dose/organ, brain (brain uptake) ([2]; i.v., 30 min): 1.53%
- % dose/organ, heart ([2]; i.v., 30 min): 0.22%
- % dose/organ, kidney ([2]; i.v., 30 min): 4.03%
- % dose/organ, liver ([2]; i.v., 30 min): 23.3%
- % dose/organ, lung(2) ([2]; i.v., 30 min): 1.79%
- % dose/organ, pancreas ([2]; i.v., 30 min): 0.38%
- % dose/organ, spleen ([2]; i.v., 30 min): 1.55%
- % dose/organ, blood ([2]; i.v., 30 min): 2.82%
- % dose/organ, muscle ([2]; i.v., 30 min): 14.4%
- % dose/organ, brain (brain uptake) ([2]; i.v., 1 hr): 1.19%
- % dose/organ, kidney ([2]; i.v., 1 hr): 4.30%
- % dose/organ, liver ([2]; i.v., 1 hr): 29.9%
- % dose/organ, blood ([2]; i.v., 1 hr): 2.61%
- % dose/organ, muscle ([2]; i.v., 1 hr): 13.6%
- % dose/organ, brain (brain uptake) ([2]; i.v., 2 hr): 0.56%
- % dose/organ, heart ([2]; i.v., 2 hr): 0.18%
- % dose/organ, kidney ([2]; i.v., 2 hr): 3.42%
- % dose/organ, liver ([2]; i.v., 2 hr): 21.7%
- % dose/organ, lung(2) ([2]; i.v., 2 hr): 0.94%
- % dose/organ, pancreas ([2]; i.v., 2 hr): 0.25%
- % dose/organ, spleen ([2]; i.v., 2 hr): 0.88%
- % dose/organ, blood ([2]; i.v., 2 hr): 2.46%
- % dose/organ, muscle ([2]; i.v., 2 hr): 17.7%
- % dose/organ, brain (brain uptake) ([2]; i.v., 6 hr): 0.10%
- % dose/organ, kidney ([2]; i.v., 6 hr): 0.64%
- % dose/organ, liver ([2]; i.v., 6 hr): 4.38%
- % dose/organ, spleen ([2]; i.v., 6 hr): 0.19%
- % dose/organ, blood ([2]; i.v., 6 hr): 0.61%
- % dose/organ, muscle ([2]; i.v., 6 hr): 3.43%
- % dose/organ, brain (brain uptake) ([2]; i.v., 24 hr): 0.02%
- % dose/organ, heart ([2]; i.v., 24 hr): 0.02%
- % dose/organ, kidney ([2]; i.v., 24 hr): 0.29%
- % dose/organ, liver ([2]; i.v., 24 hr): 2.15%
- % dose/organ, lung(2) ([2]; i.v., 24 hr): 0.04%
- % dose/organ, pancreas ([2]; i.v., 24 hr): 0.01%
- % dose/organ, spleen ([2]; i.v., 24 hr): 0.10%
- % dose/organ, blood ([2]; i.v., 24 hr): 0.13%
- % dose/organ, muscle ([2]; i.v., 24 hr): 0.74%
- distribution in monkey brain (in words) [3]: resembles the distribution observed for F-18 2-fluoro-2-deoxyglucose or for N-13 labeled ammonia, with a higher uptake of the radiopharmaceutical compound in gray matter of the brain than in white matter

Source: patent US4363793A, “Diagnostic radiopharmaceuticals for localization in target tissues exhibiting a regional pH shift relative to surrounding tissues” (State University of New York, priority 1980, dated 1982)
